The values below come from patent EP1611112B1, “ISOXAZOLE COMPOUNDS AS INHIBITORS OF HEAT SHOCK PROTEINS” (Vernalis (Cambridge) Limited, priority 2003, dated 2004).

T2 sequence (P02829 whole entry): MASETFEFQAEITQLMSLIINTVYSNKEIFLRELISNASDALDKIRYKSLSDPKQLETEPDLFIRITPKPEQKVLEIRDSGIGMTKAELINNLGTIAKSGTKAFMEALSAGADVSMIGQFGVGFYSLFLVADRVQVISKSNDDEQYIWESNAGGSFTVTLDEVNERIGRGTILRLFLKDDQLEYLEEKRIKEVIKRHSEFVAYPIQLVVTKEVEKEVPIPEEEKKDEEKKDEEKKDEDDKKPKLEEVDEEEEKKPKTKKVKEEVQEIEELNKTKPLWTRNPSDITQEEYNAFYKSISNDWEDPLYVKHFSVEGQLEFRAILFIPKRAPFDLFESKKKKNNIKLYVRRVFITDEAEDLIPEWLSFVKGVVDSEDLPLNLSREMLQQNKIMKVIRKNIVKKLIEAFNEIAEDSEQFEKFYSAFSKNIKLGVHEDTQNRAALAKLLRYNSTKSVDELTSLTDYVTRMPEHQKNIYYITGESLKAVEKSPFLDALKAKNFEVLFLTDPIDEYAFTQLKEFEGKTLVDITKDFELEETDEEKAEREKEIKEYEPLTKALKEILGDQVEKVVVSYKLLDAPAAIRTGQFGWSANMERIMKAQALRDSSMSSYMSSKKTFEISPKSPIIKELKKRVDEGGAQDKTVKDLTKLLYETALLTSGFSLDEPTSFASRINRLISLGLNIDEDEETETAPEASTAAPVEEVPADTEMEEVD
T1 sequence (P08238 whole entry): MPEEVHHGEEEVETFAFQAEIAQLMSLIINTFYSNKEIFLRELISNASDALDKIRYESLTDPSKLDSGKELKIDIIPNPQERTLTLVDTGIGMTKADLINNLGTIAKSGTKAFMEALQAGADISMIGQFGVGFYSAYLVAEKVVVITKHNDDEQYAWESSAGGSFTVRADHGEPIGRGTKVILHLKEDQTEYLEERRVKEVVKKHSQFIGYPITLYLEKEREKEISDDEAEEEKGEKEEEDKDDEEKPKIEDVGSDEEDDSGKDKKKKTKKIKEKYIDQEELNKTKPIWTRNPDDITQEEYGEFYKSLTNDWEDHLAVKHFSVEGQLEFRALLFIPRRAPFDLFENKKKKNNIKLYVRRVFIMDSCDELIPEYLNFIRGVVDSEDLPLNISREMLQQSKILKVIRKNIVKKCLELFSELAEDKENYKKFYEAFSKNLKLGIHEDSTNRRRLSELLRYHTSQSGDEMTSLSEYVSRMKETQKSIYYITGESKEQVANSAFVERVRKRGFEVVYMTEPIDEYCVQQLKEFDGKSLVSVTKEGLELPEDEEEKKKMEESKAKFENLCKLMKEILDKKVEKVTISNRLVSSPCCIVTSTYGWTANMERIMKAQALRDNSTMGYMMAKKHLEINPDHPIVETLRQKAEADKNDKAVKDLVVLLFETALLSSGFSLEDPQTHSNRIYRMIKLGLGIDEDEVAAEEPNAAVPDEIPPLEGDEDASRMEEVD

One assay has as its target T1, human full-length HSP90 (Homo sapiens, UniProt P08238).
T1 construct: E. coli expressed human full-length HSP90 protein; made in house; host or cells: E. coli
The assay can be described thus: Fluorescence Polarisation Assay (displacement of fluorescein-labelled probe RBT0045864-FAM). The format is binding. Conditions: Fluorescence Polarisation Assay, activity range. An excerpt: A Fluorescence Polarization_assay was also employed for the evaluation of some of the compounds of the Examples:
Fluorescence polarization {also known as fluorescence anisotropy} measures the rotation of a fluorescing species in solution, where the larger molecule the more polarized the fluorescence emission.
When the fluorophore is excited with polarized light, the emitted light is also polarized. The molecular size is proportional to the polarization of the fluorescence emission.
Test compound is added to the assay plate, left to equilibrate and the anisotropy measured again. Any change in anisotropy is due to competitive binding of compound to HSP90, thereby releasing probe.
Stored at room temperature. • 3) BSA (bovine serum albumen) 10 mg/ml (New England Biolabs # B9001S) • 4) 20 mM probe in 100 % DMSO stock concentration. Stored in the dark at RT. Working concentration is 200 nM diluted in AR water and stored at 4 °C.
1) Add 100µl 1x buffer to wells 11A and 12A (=FP BLNK) 2) Prepare assay mix - all reagents are kept on ice with a lid on the bucket as the probe is light-sensitive.
This gives 2.5 mM {50x} stock cpd - assuming cpds 20 mM. • 4) Repeat for wells A2 to A10. Control in columns 11 and 12. • 5) Transfer 5 µl from row A to row B- not column 12. Mix well. • 6) Transfer 5 µl from row B to row C. […] Add 2 µl of 100mM standard cpd to wells B12 - H12 {is positive control } • 13)The Z' factor is calculated from zero controls and positive wells.
(In general: Polarisation of emitted light reports the rotation of a fluorescent probe.)
One may read the IC50 as the concentration that gives 50% inhibition. A lower IC50 goes with greater potency. Compound `COc1ccc(-c2c(C)noc2-c2cc(Br)c(O)cc2O)cc1` [Example 2, 4-Bromo-6-[4-(4-methoxy-phenyl)-3-methyl-isoxazol-5-yl]-benzene-1,3-diol] returned an IC50 of less than 10 µM.

A further assay addresses T2, yeast HSP90 (Saccharomyces cerevisiae, UniProt P02829).
T2 construct: made in house; host or cells: E. coli
The assay can be described thus: Malachite Green ATPase assay. As to conditions: activity range. The format is biochemical. An excerpt: The intrinsic ATPase activity of HSP90 may be measured using yeast HSP90 as a model system. The assay, based on the use of malachite green for the measurement of inorganic phosphate, was used to test the HSP90 inhibitory activity of some of the compounds of the Examples herein.
Malachite Green ATPase Assay
Chemicals are of the highest purity commercially available and all aqueous solutions are made up in AR water. Because of the need to minimise contamination with inorganic phosphate, precautions should be taken with solutions and apparatus used in the assays. Glassware and pH meters are rinsed with double distilled or deionised water before use and, wherever possible, plastic ware should be used. Gloves are worn for all procedures. • (1) Greiner 384-well (Greiner 781101) or Costar 384-well flat-bottomed polystyrene multiwell plates (VWR). • (2) Assay buffer of (a) 100mM Tris-HCI, pH 7.4, (b) 150mM KCI, (c) 6mM MgCl2. Stored at room temperature. • (3) 0.0812% (w/v) malachite green (M 9636, Sigma Aldrich Ltd., Poole, UK). Stored at room temperature. • (4) 2.32% (w/v) polyvinyl alcohol USP (P 1097, Sigma Aldrich Ltd, Poole, UK) in boiling water (see Comment 1), allowed to cool, and stored at room temperature. • (5) 5.72% (w/v) ammonium molybdate in 6 M hydrochloric acid. Stored at room temperature. • (6) 34% (w/v) sodium citrate. Stored at room temperature. • (7) 100mM ATP, disodium salt, special quality (47699, Sigma Aldrich). Stored at -20°C. • (8) E. coli expressed yeast HSP90 protein, purified >95% (see, e.g., Panaretou et al., 1998) and stored in 50uL aliquots at -80°C.
• 1. Dilute test compounds to 500µM in AR water (DMSO concentration will be 2.5%). Transfer 2.5µl of these compounds directly from the daughter plate to the assay plate, giving a final assay concentration of 100µM. […] Column 1 in the assay plate contains no compound, as a negative control. An additional row with no compound is also used as a background. • 2. Prepare ATP by diluting 100mM stock to 925µM with assay buffer, and aliquot 5µl of diluted ATP to each well including controls (final assay concentration 370µM). • 3. Add 5µl of buffer to background row. • 4. Dilute enzyme preparation to 1.05µM with assay buffer, and aliquot 5µl into each compound well and to the negative control column. • 5. Collect the reagents to the bottom of the well, cover plate with plate seal and incubate overnight at 37degC. • 6. First thing in the morning prepare the Malachite Green Reagent. Add 2parts of Malachite Green Solution, 1 part of Polyvinyl Alcohol Solution, 1 part of Ammonium Molybdate Solution, and 2 parts of AR water. • 7. Invert to mix, and leave for approximately 1 hour until the colour turns from brown to golden yellow. • 8. Add 40µl of Malachite Green Reagent to each well, allow 5 mins for colour to develop. • 9. Add 5µl of Sodium Citrate Reagent to each well (see comment 2) • 10. Re-cover with plate seal and shake on plate shaker for at least 15 mins. • 11. Measure Absorbance at 620nm using a suitable plate reader (e.g. Victor, Perkin Elmer Life Sciences, Milton Keynes, UK). Under these conditions, the control absorbance is 0.9 to 1.4, and the background is 0.2-0.35 giving a signal to noise ratio of -12. The Z' factor calculated from data obtained using these conditions is between 0.6 and 0.9.
• (1) The polyvinyl alcohol dissolves in boiling water with difficulty and stirring for 2-3 h is required. • (2) The time interval between addition of the malachite green reagent and the sodium citrate should be kept as short as possible in order to reduce the non-enzymatic hydrolysis of ATP. Once the sodium citrate is added, the colour is stable for up to 4 h at room temperature. • (3) Compounds can be added to the assay plates using a Biomek FX Robot (Beckman Coulter). […]
The compound `COc1ccc(-c2cnoc2-c2cc(Cl)c(O)cc2O)cc1OC` [Example 8] showed an IC50 greater than 50 µM.

In turn, `COc1ccc(-c2c(C)noc2-c2cc(C(OC)c3ccccc3)c(O)cc2O)cc1` (stereo not drawn) [Example 20] registered an IC50 of less than 50 µM.

Turning to `COc1ccc(-c2c(C)noc2-c2cc(C=O)c(O)cc2O)cc1` [Example 17], the IC50 is greater than 50 µM.

As to `Oc1ccccc1-c1oncc1-c1ccc2c(c1)OCCO2` [Example 7], the IC50 is greater than 50 µM.

Consider `CCc1cc(-c2oncc2-c2ccc(OC)c(OC)c2)c(O)cc1O` [Example 11], for which the IC50 is less than 50 µM.

`Cc1noc(-c2ccc(O)cc2O)c1-c1ccc(F)cc1` [Example 9] came in with an IC50 of less than 50 µM.

`CCCCCc1noc(-c2ccc(O)cc2O)c1-c1ccc(OC)cc1` [Example 21] yielded an IC50 of less than 50 µM.

The compound `Oc1cc(O)c(-c2oncc2-c2ccc(Br)cc2)cc1Cl` [Example 12a] yielded an IC50 of less than 50 µM.

In turn, `Cc1cc(O)cc(O)c1-c1onc(C(F)(F)F)c1-c1cscn1` [Example 12d] returned a half-inhibitory concentration (IC50) of less than 50 µM.

The compound `COc1ccc(-c2c(C)noc2-c2cc(C(=S)Nc3ccccc3)c(O)cc2O)cc1` [Example 18] came in with a half-maximal inhibitory concentration (IC50) greater than 50 µM.

`Cc1cc(O)cc(O)c1-c1oncc1-c1csc(-c2ccccc2)n1` [Example 12c] returned an IC50 of less than 50 µM.

For `Cc1noc(-c2ccc(O)cc2O)c1-c1ccc2c(c1)OCCO2` [Example 5], the IC50 is greater than 50 µM.

As for `Cc1noc(-c2cc(Cl)c(O)cc2O)c1-c1ccccc1` [Example 10], the IC50 was less than 50 µM.

As to `COc1ccc(-c2c(C)noc2-c2cc(-c3cccnc3)c(O)cc2O)cc1` [Example 12], the IC50 is greater than 50 µM.

In the case of `COc1ccc(-c2c(C)noc2-c2cc(C(=O)Nc3ccccc3OC)c(O)cc2O)cc1` [Example 19], the IC50 is less than 50 µM.

The compound `Oc1ccc(Cl)cc1-c1oncc1-c1ccc2c(c1)OCCO2` [Example 6] registered an IC50 greater than 50 µM.

Tested on in another assay: not listed separately
The assay can be described thus: Sulforhodamine B (SRB) growth inhibition / growth arrest assay. The format is cell-based. Conditions: cell line not named. Here is the method:
A growth inhibition assay was also employed for the evaluation of candidate HSP90 inhibitors: • Assessment of cytotoxicity by Sulforhodamine B (SRB) assay: calculation of 50% inhibitory concentration (IC50).
• 1) Determine cell number by haemocytometer. • 2) Using an 8 channel multipipettor, add 160µl of the cell suspension (3600 cells/well or 2 x 10^4 cells/ml) to each well of a 96-well microtitre plate. • 3) Incubate overnight at 37°C in a CO2 incubator. […]
• 8) Tip off medium into sink and immerse plate slowly into 10% ice cold trichloroacetic acid (TCA). […] Leave for 15 mins. • 12)Wash off unbound SRB stain with four washes of 1% acetic acid. • 13)Dry plates in incubator. • 14)Solubilise SRB using 100µl of 10mM Tris base and put plates on plate shaker for 5 mins. • 15)Determine absorbance at 540nm using a plate reader. Calculate mean absorbance for quadruplicate wells and express as a percentage of value for control, untreated wells. • 16)Plot % absorbance values versus log drug concentration and determine the IC50. […]
With `COc1ccc(-c2c(C)noc2-c2cc(Br)c(O)cc2O)cc1` [Example 2, 4-Bromo-6-[4-(4-methoxy-phenyl)-3-methyl-isoxazol-5-yl]-benzene-1,3-diol], the IC50 is less than 50 µM.
